The text below walks through data of EP1928474B1, “USE OF GLUCOSYLATED HYDROXYSTILBENES FOR THE PREVENTION AND TREATMENT OF EYE PATHOLOGIES” (Tubilux Pharma S.P.A., priority 2005, dated 2007).

Data set [1] has as its system hTERT fibroblasts. In words: Differentiation of TGF-β-stimulated hTERT fibroblasts into myofibroblasts, α-SMA-positive cells by flow cytometry. Type of data set: cell-based, human. The note with it: 5 µg/ml; for percentage of cells capable of expressing α-SMA: sub-optimal dose (0.1 ng/ml) of TGF-β, Figure 2. The protocol:
The study aimed at determining the effects of piceide treatment on the differentiation of corneal fibroblasts immortalised with human inverse telomerase transcriptase (hTERT fibroblasts) stimulated with sub-optimal, optimal or above-optimal doses of TGF-β. Fibroblast differentiation into myofibroblasts was determined by examining whether there was any α-smooth muscle actin (α-SMA).
Some hTERT fibroblasts maintained in a DMEM culture were re-suspended at a concentration of 1x10^6 and placed on 24mm-well plates. The cells were incubated at a temperature of 37°C with piceide or resveratrol at doses of 5 µg/ml. After 24 h the cells were stimulated with optimal (1ng/ml), sub-optimal (0.1 ng/ml) and above-optimum (10 ng ml) doses of TGF-β. After 3, 5 and 10 days of incubation, the fibroblasts were washed and re-suspended in PBS at a concentration of 1x10^6, in order to determine the α-SMA-positive cells by means of flow cytometry.
The cells treated in the aforesaid way were permeabilised by treatment with 70% ethanol and then labelled with 5µg/ml of a human anti-α-SMA antibody labelled with FITC. After colouring, the cells were fixed in paraformaldehyde and analysed by a means of a FACScan cytofluorimeter.
(Flow cytometry measures light scatter and fluorescence of single cells or particles in a stream.)

Data set [2] has as its system hTERT fibroblasts. The data set can be described thus: Toxicity for hTERT fibroblasts at the doses assayed. The note with it: doses of the differentiation study, 5 µg/ml.
Data set [3] concerns fibroblasts of normal corneal origin. In words: Differentiation of TGF-β-stimulated fibroblasts of normal corneal origin into myofibroblasts, α-SMA expression. Type of data set: cell-based. From the text: As reported in detail in the experimental section below, piceide has - unlike resveratrol - unexpectedly proven to be capable of modulating the capacity of TGF-β to cause fibroblast differentiation into myofibroblasts.

For data set [4], the system named is inducible nitric-synthesase oxide (iNOS). The data set can be described thus: iNOS production by hTERT fibroblasts stimulated with cytokines (IL-1 + IFN-γ), iNOS-positive cells by flow cytometry. Type of data set: cell-based, human. As to conditions: for number of iNOS-positive fibroblasts: pre-incubation at 1.25 - 2.5 - 5 µg/ml, then IL-1 3 ng/ml + IFN-γ 250 U/ml, 48 h, Figure 1. The procedure:
The study aimed at determining the effects of treatment with piceide and resveratrol on the inducible nitric-synthesase oxide (iNOS) by corneal fibroblasts immortalised with human Telomerase Reverse Transcriptase (hTERT fibroblasts), stimulated with interferon-γ (IFN-γ) and interleukine-1 (IL-1).
Some hTERT fibroblasts were maintained in a DMEM culture medium. They were subsequently re-suspended at a concentration of 1x10^6 and placed on 24 mm-well plates. The cells were incubated at a temperature of 37°C with piceide or resveratrol at doses of 1.25 - 2.5 - 5 µg/ml. After 15 minutes the following were added to the wells containing the cells: IL-1 at a concentration of 3 ng/ml, and IFN-γ at a concentration of 250 U/ml. After a further 48 h of incubation, the fibroblasts were washed and re-suspended in PBS at a concentration of 1x10^6, in order to determine the iNOS-positive cells by means of flow cytometry.
The cells treated in the aforesaid way were permeabilised by treatment with 70% ethanol and then labelled with 5 µg/ml of a human anti-iNOS antibody labelled with FITC. After; colouring, the cells were fixed in paraformaldehyde and analysed by means of a FACScan cytofluorimeter.

For another data set, the system named is iNOS. In words: iNOS production by fibroblasts of normal corneal origin stimulated with IL-1. As to conditions: equal doses. Type of data set: cell-based. From the text:
As will be illustrated in greater detail in the experimental section below, piceide - at non-toxic levels - blocks iNOS production and its activity is correlated to the dose. […] This different activity is probably due to the different chemical structure of the two molecules and to the consequent different biological characteristics, among which the greater bioavailability of piceide at the cell level is important. Another anti-inflammatory effect of piceide, linked to what has been said above, lies in its capacity to inhibit cyclooxygenase synthesis and thus the synthesis and release of pro-inflammatory prostaglandins.

Data set [5] has as its system human liver myofibroblasts. The note with it: literature; cited from earlier work.

With `OC[C@H]1O[C@@H](Oc2cc(O)cc(/C=C/c3ccc(O)cc3)c2)[C@H](O)[C@@H](O)[C@@H]1O` [piceide, resveratrol-3-O-β-mono-D-glucoside], the “percentage of α-SMA+ cells” value is listed as “percentage decrease in fibroblasts which was already significant” with hTERT fibroblasts [1] (above-optimal dose (10 ng/ml) of TGF-β, 5th day, Figure 4) and “brought the number of fibroblasts back to physiological conditions” with hTERT fibroblasts [1] (above-optimal dose (10 ng/ml) of TGF-β, 10th day, Figure 4). Also, the “percentage of α-SMA-positive cells” value in the data set on hTERT fibroblasts [1] (optimal dose (1 ng/ml) of TGF-β, all three time intervals (3, 5, 10 days), Figure 3) is “did not lead to any significant percentage variations”. For the same compound, the “percentage of cells capable of expressing α-SMA” value in the data set with hTERT fibroblasts [1] (5th day) is “decreased, although still remaining statistically significant”; in the data set with hTERT fibroblasts [1] (10th day), “no longer any significant percentages of cells able to express α-SMA”; with hTERT fibroblasts [1] (3 days, compared to non-treated), “statistically significant increase”. Besides, the toxicity result in the data set with hTERT fibroblasts [2] is listed as “does not appear toxic”. The “TGF-β activity assessed by α-SMA expression” value in data set [3] (fibroblasts of normal corneal origin, sub-optimal concentration of TGF-β) is listed as “increase growth factor activity”. In data set [3] (normal fibroblasts, above-optimal concentration of TGF-β), the α-SMA expression result is listed as “decrease in α-SMA expression”. The “decrease in iNOS-positive fibroblasts compared to resveratrol” value in data set [4] (equal doses 1.25 - 2.5 - 5 µg/ml, differences statistically significant at each point) was “greater”. In data set [4], the “number of iNOS-positive fibroblasts” value is on record as “dose-dependent decrease”. Also, the “inhibition of iNOS production compared to resveratrol” value with iNOS is on record as “more effective”. Moreover, in data set [5], the “effect on liver myofibroblasts” value is “did not show any significant effects”.

Consider `Oc1ccc(/C=C/c2cc(O)cc(O)c2)cc1` [resveratrol, reference compound], for which the “percentage of α-SMA+ cells” value is given as “did not lead to any statistically significant variation” with hTERT fibroblasts [1] (above-optimal dose of TGF-β, time not stated); “did not lead to any statistically significant variation” in the data set on hTERT fibroblasts [1] (optimal dose of TGF-β, time not stated); “did not lead to any statistically significant variation” in the data set on hTERT fibroblasts [1] (sub-optimal dose of TGF-β, time not stated). Moreover, the “number of iNOS-positive fibroblasts” value in data set [4] was “decrease”. Also, the “effect on liver myofibroblasts” value in data set [5] was “able to deactivate human liver myofibroblasts”. The α-SMA expression entry in data set [5] is “reduction”.

On to `Oc1cc(O)cc(/C=C/c2ccc(O)c(O)c2)c1` [trans-piceatannol, trans-3,4',3',5-tetrahydroxystilbene], for which the “effect on liver myofibroblasts” value in data set [5] is “neither trans-piceide nor another hydroxystilbene - trans-piceatannol (trans-3,4',3',5-tetrahydroxystilbene) - have shown any effect”.
